# What was measured:
# Assay type in all cases: in vivo
# [1] = tested on: barnyardgrass (Echinochloa crus-galli); experiment: Test A preemergence, barnyardgrass; details: Echinochloa crus-galli, pre-emergence, 240 h, Preemergence, 0 to 100 scale (0 no effect, 100 complete control), read-out: Plant response rating, Barnyardgrass; for pest or weed control at 125 g/ha: 125 g ai/ha
# Procedure, shortened: (§1)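 Plants grown in pots of loam blended with sand were treated either before emergence, via directed soil spray, or after emergence at the one- to two-leaf stage. Following about 10 days in the greenhouse, each treatment was visually compared with untreated controls and rated from 0 (no effect) to 100 (complete control).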
# kochia (Kochia scoparia) [2] = experiment: Test A preemergence, kochia; details: Bassia scoparia, pre-emergence, 240 h, Preemergence, 0 to 100 scale (0 no effect, 100 complete control), read-out: Plant response rating, Kochia; for pest or weed control at 125 g/ha: 125 g ai/ha
# Procedure, shortened: as §1
# [3] = tested on: ryegrass, Italian (Italian ryegrass, Lolium multiflorum); experiment: Test A preemergence, Italian ryegrass; details: Lolium multiflorum, pre-emergence, 240 h, Preemergence, 0 to 100 scale (0 no effect, 100 complete control), read-out: Plant response rating, Ryegrass, Italian; for pest or weed control at 125 g/ha: 125 g ai/ha
# Procedure, shortened: as §1
# [4] = tested on: pigweed (Amaranthus retroflexus); experiment: Test A preemergence, pigweed; details: Amaranthus retroflexus, pre-emergence, 240 h, Preemergence, 0 to 100 scale (0 no effect, 100 complete control), read-out: Plant response rating, Pigweed; for pest or weed control at 125 g/ha: 125 g ai/ha
# Procedure, shortened: as §1
# kochia (Kochia scoparia) [5] = experiment: Test A postemergence, kochia; details: Bassia scoparia, post-emergence, 240 h, postemergence, 0 to 100 scale, 0 is no effect, 100 is complete control, approximately 10 days, read-out: Plant response rating, Kochia; for pest or weed control at 125 g/ha: 125 g ai/ha
# Procedure, shortened: as §1
# [6] = tested on: ragweed (common ragweed, Ambrosia elatior); experiment: Test A postemergence, ragweed; details: Ambrosia artemisiifolia, post-emergence, 240 h, postemergence, 0 to 100 scale, 0 is no effect, 100 is complete control, approximately 10 days, read-out: Plant response rating, Ragweed; for pest or weed control at 125 g/ha: 125 g ai/ha
# Procedure, shortened: as §1
# [7] = tested on: foxtail, giant (giant foxtail, Setaria faberii); experiment: Test A postemergence, giant foxtail; details: Setaria faberi, post-emergence, 240 h, postemergence, 0 to 100 scale, 0 is no effect, 100 is complete control, approximately 10 days, read-out: Plant response rating, Foxtail, Giant; for pest or weed control at 125 g/ha: 125 g ai/ha
# Procedure, shortened: as §1
# [8] = tested on: pigweed (Amaranthus retroflexus); experiment: Test A postemergence, pigweed; details: Amaranthus retroflexus, post-emergence, 240 h, postemergence, 0 to 100 scale, 0 is no effect, 100 is complete control, approximately 10 days, read-out: Plant response rating, Pigweed; for pest or weed control at 125 g/ha: 125 g ai/ha
# Procedure, shortened: as §1
# [9] = tested on: wheat (Triticum aestivum); experiment: Test A postemergence, wheat; details: Triticum aestivum, post-emergence, 240 h, postemergence, 0 to 100 scale, 0 is no effect, 100 is complete control, approximately 10 days, read-out: Plant response rating, Wheat; for plant injury at 125 g/ha: 125 g ai/ha
# Procedure, shortened: as §1
# [10] = tested on: blackgrass (Alopecurus myosuroides); experiment: Test A postemergence, blackgrass; details: Alopecurus myosuroides, post-emergence, 240 h, postemergence, 0 to 100 scale, 0 is no effect, 100 is complete control, approximately 10 days, read-out: Plant response rating, Blackgrass; for pest or weed control at 125 g/ha: 125 g ai/ha
# Procedure, shortened: as §1
# [11] = tested on: galium (catchweed bedstraw, Galium aparine); experiment: Test A postemergence, galium; details: Galium, post-emergence, 240 h, postemergence, 0 to 100 scale, 0 is no effect, 100 is complete control, approximately 10 days, read-out: Plant response rating, Galium; for pest or weed control at 125 g/ha: 125 g ai/ha
# Procedure, shortened: as §1
# rice (Oryza sativa) = experiment: Test B flooded paddy test, rice; details: Oryza sativa; 250 g ai/ha, Flood; visual rating after 13 to 15 days; scale 0 to 100, 0 is no effect, 100 is complete control; read-out: Plant response rating, Rice
# Procedure, shortened: (§2)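 Plants grown to the 2-leaf stage; pots flooded to 3 cm above soil and compounds applied directly into the paddy water, depth held throughout. After 13 to 15 days in the greenhouse, injury was rated visually against untreated controls on a 0–100 scale (0 no effect, 100 complete control).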
# [12] = tested on: sedge, umbrella (small-flower umbrella sedge, Cyperus difformis); experiment: Test B flooded paddy test, umbrella sedge; details: Cyperus difformis; 250 g ai/ha, Flood; visual rating after 13 to 15 days; scale 0 to 100, 0 is no effect, 100 is complete control; read-out: Plant response rating, Sedge, Umbrella
# Procedure, shortened: as §2
# [13] = tested on: ducksalad (Heteranthera limosa); experiment: Test B flooded paddy test, ducksalad; details: Heteranthera limosa; 250 g ai/ha, Flood; visual rating after 13 to 15 days; scale 0 to 100, 0 is no effect, 100 is complete control; read-out: Plant response rating, Ducksalad
# Procedure, shortened: as §2
# [14] = tested on: barnyardgrass (Echinochloa crus-galli); experiment: Test B flooded paddy test, barnyardgrass; details: Echinochloa crus-galli; 250 g ai/ha, Flood; visual rating after 13 to 15 days; scale 0 to 100, 0 is no effect, 100 is complete control; read-out: Plant response rating, Barnyardgrass
# Procedure, shortened: as §2
SMILES,pest or weed control at 125 g/ha [1],pest or weed control at 125 g/ha (kochia (Kochia scoparia) [2]),pest or weed control at 125 g/ha [3],pest or weed control at 125 g/ha [4],pest or weed control at 125 g/ha (kochia (Kochia scoparia) [5]),pest or weed control at 125 g/ha [6],pest or weed control at 125 g/ha [7],pest or weed control at 125 g/ha [8],plant injury at 125 g/ha [9],pest or weed control at 125 g/ha [10],pest or weed control at 125 g/ha [11],plant injury at 250 g/ha (rice (Oryza sativa)),pest or weed control at 250 g/ha [12],pest or weed control at 250 g/ha [13],pest or weed control at 250 g/ha [14],also measured
"CCCCOc1c(C#N)cccc1Oc1ncc(Cl)cn1 [Compound 35, 2-butoxy-3-[(5-chloro-2-pyrimidinyl)oxy]benzonitrile]",100%,100%,30%,100%,100%,10%,90%,90%,10%,70%,90%,0%,70%,65%,30%,pest or weed control at 500 g/ha ([1]; 500 g ai/ha): 100%; pest or weed control at 500 g/ha (kochia (Kochia scoparia) [2]; 500 g ai/ha): 100%; pest or weed control at 500 g/ha ([3]; 500 g ai/ha): 90%; pest or weed control at 500 g/ha ([4]; 500 g ai/ha): 100%; pest or weed control at 500 g/ha (kochia (Kochia scoparia) [5]; 500 g ai/ha): 100%; pest or weed control at 500 g/ha ([6]; 500 g ai/ha): 20%; pest or weed control at 500 g/ha ([7]; 500 g ai/ha): 90%; pest or weed control at 500 g/ha ([8]; 500 g ai/ha): 100%; plant injury at 500 g/ha ([9]; 500 g ai/ha): 40%; pest or weed control at 500 g/ha ([10]; 500 g ai/ha): 90%; pest or weed control at 500 g/ha ([11]; 500 g ai/ha): 100%
FC(F)(F)COc1c(Cl)cccc1Oc1ncc(Cl)cn1 [Compound 42],10%,10%,0%,60%,10%,0%,10%,60%,0%,10%,20%,0%,60%,70%,0%,pest or weed control at 31 g/ha ([1]; 31 g ai/ha): 0%; pest or weed control at 31 g/ha (kochia (Kochia scoparia) [2]; 31 g ai/ha): 0%; pest or weed control at 31 g/ha ([3]; 31 g ai/ha): 0%; pest or weed control at 31 g/ha ([4]; 31 g ai/ha): 0%; pest or weed control at 31 g/ha (kochia (Kochia scoparia) [5]; 31 g ai/ha): 0%; pest or weed control at 31 g/ha ([6]; 31 g ai/ha): 0%; pest or weed control at 31 g/ha ([7]; 31 g ai/ha): 0%; pest or weed control at 31 g/ha ([8]; 31 g ai/ha): 20%; plant injury at 31 g/ha ([9]; 31 g ai/ha): 0%; pest or weed control at 31 g/ha ([10]; 31 g ai/ha): 0%; pest or weed control at 31 g/ha ([11]; 31 g ai/ha): 0%

# Reference: patent publication US10485235B2, “Aryloxypyrimidinyl ethers as herbicides” (FMC Corporation, priority 2015, dated 2019)
